One data set concerns the target T1, RORγ (Homo sapiens, UniProt P51449).
T1 construct: The concentration of B-RORγ LBD was 40 nM
T1 sequence (P51449 269-508 limits assumed): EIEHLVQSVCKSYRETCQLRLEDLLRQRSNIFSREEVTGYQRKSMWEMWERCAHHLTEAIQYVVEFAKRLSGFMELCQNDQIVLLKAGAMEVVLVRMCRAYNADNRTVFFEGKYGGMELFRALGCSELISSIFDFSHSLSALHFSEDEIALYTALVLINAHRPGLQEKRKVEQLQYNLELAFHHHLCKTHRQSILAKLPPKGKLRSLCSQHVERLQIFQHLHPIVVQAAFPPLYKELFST
Kind of data set: Fluorescence resonance energy transfer (FRET) test, B-RORγ LBD / Biotin-SRC1. Type of data set: biochemical. The procedure, abridged:
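TR-FRET coactivator recruitment: biotinylated RORγ LBD (40 nM, 2× stock) on SA-APC with biotinylated SRC1 peptide (40 nM, 2× stock) on SA-Eu, in HEPES pH 7.4, 100 mM NaCl, 0.01% BSA, 10 mM DTT. Compounds in 11-point 3-fold DMSO series; 1 h room temperature. 665/615 ratio normalised to DMSO (Min) and 10 μM SRC (Max).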

The nature of data set [1]: Pharmacokinetic evaluation I in ICR mice. Type of data set: in vivo. The following applies: mouse, plasma, po. The procedure:
Biological Example 2 Pharmacokinetic Evaluation I
ICR mice were weighed after an overnight fast for 15 h, and then randomly divided into groups according to body weight. The test compounds were formulated in a vehicle of 10% DMSO 10% kolliphor HS15^+ 80% Saline. For the test group administered intravenously (indicated by i.v.), the test animals were administered a dose of 1 mg/kg; for the test group administered by oral administration (indicated by p.o.), the test animals were administered a dose of 5 mg/kg. Then, at time points 0, 0.083 (intravenous injection group only), 0.25, 0.5, 1.0, 2.0, 5.0, 7.0 and 24 h, venous blood (approximately 0.2 mL) was collected and placed in an EDTAK2 anticoagulation tube, then centrifuged at 11,000 rpm for 2 min. Plasma was collected and stored at −20° C. or −70° C. until LC/MS/MS analysis. The drug concentration in plasma was measured at each time point, and the pharmacokinetic parameters were calculated according to the drug concentration-time curve.

Data set [2] in a line: Stability in human liver microsomes. Format: in vitro ADME. As to conditions: pH 7.4. The procedure:
(§1) Biological Example 4 Stability of the Compounds of the Present Invention in Human and Rat Liver Microsomes
(§2) Human or rat liver microsomes were incubated in double wells in polypropylene tubes. A typical incubation mixture included human or rat liver microsomes (final concentration: 0.5 mg protein/mL), target compound (final concentration: 1.5 μM), and K-phosphate buffered solution (containing […] EDTA, 100 mM, pH=7.4) in a total volume of 30 μL. Compounds were dissolved in DMSO and diluted with K-phosphate buffered solution to give a final working solution concentration of 30 μM. After 10 min of pre-incubation, 25 μL of test compound or positive control solution was transferred to the microsomal solution. The mixture was mixed well and 30 μL of the mixture was immediately pipetted, ice-cold acetonitrile was added, then 15 μL of NADPH was added as T0. 15 μL of NADPH (final concentration: 2 mM) was added to 30 μL of the mixture for the enzymatic reaction, and the entire experiment was carried out in an incubation tube at 37° C. At various time points (0, 20 and 60 min), the reaction was stopped by adding 150 μL of acetonitrile (with internal standard). The protein was removed by centrifugation at 4000 rpm for 10 min, and the supernatant was collected and analyzed by LC-MS/MS.
(§3) For each reaction, the concentration of compound in the incubation of human or rat liver microsomes was plotted (expressed as a percentage) as a percentage relative to the zero time point to infer in vitro metabolic half-life and in vivo intrinsic hepatic clearance rate.
For orientation: Liver microsomes are a subcellular fraction often used to study metabolism.

Data set [3] can be described thus: Stability in rat liver microsomes. Format: in vitro ADME. As to conditions: pH 7.4. The protocol:
as §1, §2, §3

Structures are written as SMILES. pIC50: −log10 of the molar value.

Broadly, the pIC50 is −log10 of the IC50, conventionally taken in molar units. High values mean a small IC50, low ones a large IC50. As a reminder, the bioavailability is the share of a dose that reaches the circulation, judged against a reference dose that is usually intravenous. What is called AUC(0-t) is the area under the concentration-time curve up to a stated or last time point. Read a high AUC(0-t) as high exposure. For orientation: Cmax means the peak of the concentration-time curve. One may read the CLint scaled as the capacity of the preparation to metabolise the compound, expressed as a volume cleared per time.

As for `CCS(=O)(=O)c1ccc([C@H](CCO)NC(=O)c2ccc(N3C[C@@H](Oc4ccc(OC(F)(F)F)cc4)C[C@H]3COC(F)F)cc2)cc1` [Example 119, 4-((2S,4S)-2-((difluoromethoxy)methyl)-4-(4-(trifluoromethoxy)phenoxy)pyrrolidin-1-yl)-N—((S)-1-(4-(ethylsulfonyl)phenyl)-3-hydroxypropyl)benzamide], the negative logarithm of the IC50 (pIC50) against RORγ is 8.04. Besides, the bioavailability in data set [1] (p.o. 5 mg/kg, i.v. 1 mg/kg, read-out: Oral bioavailability (F)) was 71%. In data set [1] (5 mg/kg), this compound gave an area under the curve AUC(0-t) of 28.5 µM·h, a Cmax of 2380 nM and a half-life of 6.5 h. In addition, in data set [2] (human liver microsomes 0.5 mg protein/mL, compound 1.5 μM, NADPH, 37° C., read-out: Half-life t1/2), the half-life at 1.5 μM amounted to 5.25 h. Further, in data set [2] (human liver microsomes, inferred in vivo intrinsic hepatic clearance rate), the CLint scaled at 1.5 μM is 4.4 mL/min/kg. The half-life at 1.5 μM in data set [3] (rat liver microsomes 0.5 mg protein/mL, compound 1.5 μM, NADPH, 37° C., read-out: Half-life t1/2) is 7.17 h. Moreover, the CLint scaled at 1.5 μM in data set [3] (rat liver microsomes, inferred in vivo intrinsic hepatic clearance rate) was 3.2 mL/min/kg.

The values are drawn from US20230067159A1, “ROR-GAMMA-T INHIBITOR, PREPARATION METHOD THEREOF AND USE THEREOF” (priority 2020, published 2023).
